Source: patent US9012448B2, “1,2,4-triazolo[4,3-a]pyridine derivatives and their use as positive allosteric modulators of MGLUR2 receptors” (Janssen Pharmaceuticals, Inc., priority 2010, dated 2015)

Experiments:
human mGluR2 receptor = biological target: T1, human mGluR2 receptor (Homo sapiens, UniProt Q14416); assay: [35S]GTPγS binding assay, hmGluR2 PAM (membranes from transfected CHO cells, glutamate at EC20); format: biochemical; settings: for EC50: in presence of mGluR2 agonist glutamate at a predetermined EC20 concentration, pEC50 = -log EC50 (M), at least 8 concentrations; for GTPγS - hmGluR2 PAM Emax / Emax: relative maximal effect (maximal % effect relative to the control glutamate response), glutamate at EC20
T1 construct: expressed in transfected cells; host or cells: CHO cells (membrane preparation)
T1 sequence (Q14416 19-872): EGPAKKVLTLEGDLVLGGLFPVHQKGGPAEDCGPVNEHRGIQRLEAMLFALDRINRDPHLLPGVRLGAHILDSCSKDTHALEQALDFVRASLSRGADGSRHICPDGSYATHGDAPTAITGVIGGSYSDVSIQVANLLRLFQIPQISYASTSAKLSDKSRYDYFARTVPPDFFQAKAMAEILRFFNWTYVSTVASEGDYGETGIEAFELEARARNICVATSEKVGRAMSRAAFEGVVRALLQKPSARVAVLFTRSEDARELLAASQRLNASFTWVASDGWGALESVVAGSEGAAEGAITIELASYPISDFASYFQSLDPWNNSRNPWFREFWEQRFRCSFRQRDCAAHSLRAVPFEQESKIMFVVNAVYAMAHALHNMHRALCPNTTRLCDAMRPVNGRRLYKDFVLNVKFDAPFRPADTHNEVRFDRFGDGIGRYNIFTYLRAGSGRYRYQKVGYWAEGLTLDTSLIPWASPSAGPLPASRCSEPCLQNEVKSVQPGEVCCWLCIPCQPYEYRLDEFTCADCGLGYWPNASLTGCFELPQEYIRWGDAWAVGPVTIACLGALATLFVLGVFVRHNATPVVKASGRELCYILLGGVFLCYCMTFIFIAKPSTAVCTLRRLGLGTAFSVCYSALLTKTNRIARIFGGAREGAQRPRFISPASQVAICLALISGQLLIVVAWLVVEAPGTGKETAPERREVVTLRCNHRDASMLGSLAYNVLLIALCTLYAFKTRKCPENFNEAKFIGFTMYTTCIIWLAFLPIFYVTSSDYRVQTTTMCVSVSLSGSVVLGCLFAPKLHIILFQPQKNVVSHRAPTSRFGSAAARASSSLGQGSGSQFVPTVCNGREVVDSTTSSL
Source text: The compounds provided in the present invention are positive allosteric modulators of mGluR2. These compounds appear to potentiate glutamate responses by binding to an allosteric site other than the glutamate binding site. The response of mGluR2 to a concentration of glutamate is increased when compounds of Formula (I) are present. Compounds of Formula (I) are expected to have their effect substantially at mGluR2 by virtue of their ability to enhance the function of the receptor. The effects of positive allosteric modulators tested at mGluR2 using the [^35S]GTPγS binding assay method described below and which is suitable for the identification of such compounds, and more particularly the compounds according to Formula (I), are shown in Table 3.
The [^35S]GTPγS binding assay is a functional membrane-based assay used to study G-protein coupled receptor (GPCR) function whereby incorporation of a non-hydrolysable form of GTP, [^35S]GTPγS (guanosine 5′-triphosphate, labelled with […] ^35S), is measured. The G-protein a subunit catalyzes the exchange of guanosine 5′-diphosphate (GDP) by guanosine triphosphate (GTP) and on activation of the GPCR by an agonist, [^35S]GTPγS, becomes incorporated and cannot be cleaved to continue the exchange cycle (Harper (1998) Current Protocols in Pharmacology 2.6.1-10, John Wiley & Sons, Inc.). […] Here we describe the use of the [^35S]GTPγS binding assay using membranes from cells transfected with the human mGluR2 receptor and adapted from Schaffhauser et al. ((2003) Molecular Pharmacology 4:798-810) for the detection of the positive allosteric modulation (PAM) properties of the compounds of this invention.
CHO-cells were cultured to pre-confluence and stimulated with 5 mM butyrate for 24 h. Cells were then collected by scraping in PBS and cell suspension was centrifuged (10 min at 4000 RPM in benchtop centrifuge). Supernatant was discarded and pellet gently resuspended in 50 mM Tris-HCl, pH 7.4 by mixing with a vortex and pipetting up and down. The suspension was centrifuged at 16,000 RPM (Sorvall RC-5C plus rotor SS-34) for 10 minutes and the supernatant discarded. The pellet was homogenized in 5 mM Tris-HCl, pH 7.4 using an ultra-turrax homogenizer and centrifuged again (18,000 RPM, 20 min, 4° C.). The final pellet was resuspended in 50 mM Tris-HCl, pH 7.4 and stored at −80° C. in appropriate aliquots before use. Protein concentration was determined by the Bradford method (Bio-Rad, USA) with bovine serum albumin as standard.
Measurement of mGluR2 positive allosteric modulatory activity of test compounds was performed as follows. Test compounds and glutamate were diluted in assay buffer containing 10 mM HEPES acid, 10 mM HEPES salt, pH 7.4, 100 mM NaCl, 3 mM MgCl2 and 10 μM GDP. Human mGlu2 receptor-containing membranes were thawed on ice and diluted in assay buffer supplemented with 14 μg/ml saponin. Membranes were pre-incubated with compound alone or together with a predefined (˜EC20) concentration of glutamate (PAM assay) for 30 min at 30° C. After addition of [^35S]GTPγS (f.c. 0.1 nM), assay mixtures were shaken briefly and further incubated to allow [^35S]GTPγS incorporation on activation (30 minutes, 30° C.). Final assay mixtures contained 7 μg of membrane protein in 10 mM HEPES acid, 10 mM HEPES salt, pH 7.4, 100 mM NaCl, 3 mM MgCl2, 10 μM GDP and 10 μg/ml saponin. Total reaction volume was 200 μl. Reactions were terminated by rapid filtration through Unifilter-96 GF/B plates (Perkin Elmer, Massachusetts, USA) using a 96-well filtermate universal harvester. Filters were washed 6 times with ice-cold 10 mM NaH2PO4/10 mM Na2HPO4, pH 7.4. Filters were then air-dried, and 40 μl of liquid scintillation cocktail (Microscint-O) was added to each well. Membrane-bound radioactivity was counted in a Microplate Scintillation and Luminescence Counter from Perkin Elmer. […]

EC50 (human mGluR2 receptor) [M] | GTPγS - hmGluR2 PAM Emax (human mGluR2 receptor) [%] | Emax (human mGluR2 receptor) [%] | melting point [°C] | SMILES
1.95e-07 | 52 | – | – | CC1(c2ccccc2F)COCCN1Cc1ccn2c(CC3CC3)nnc2c1C(F)(F)F (single isomer, unassigned) [Compound 4b, 3-(Cyclopropylmethyl)-7-{[(3*S)-3-(2-fluorophenyl)-3-methylmorpholin-4-yl]methyl}-8-(trifluoromethyl)[1,2,4]triazolo[4,3-a]pyridine]
1.7e-07 | – | 238 | 69.2 | FC(F)(F)c1c(CN2CCOC[C@H]2c2ccccc2)ccn2c(CC3CC3)nnc12 [Compound 1, 3-(Cyclopropylmethyl)-7-[[(3R)-3-phenyl-4-morpholinyl]methyl]-8-(trifluoromethyl)-1,2,4-triazolo[4,3-c]pyridine]
4.27e-07 | – | 136 | – | FC(F)(F)c1c(CN2CCOC[C@@H]2c2ccccc2)ccn2c(CC3CC3)nnc12 [Compound 2, 3-(Cyclopropylmethyl)-7-[[(3S)-3-phenyl-4-morpholinyl]methyl]-8-(trifluoromethyl)-1,2,4-triazolo[4,3-c]pyridine]

Continued, molecule first:

SMILES | EC50 (human mGluR2 receptor) [M] | GTPγS - hmGluR2 PAM Emax (human mGluR2 receptor) [%] | Emax (human mGluR2 receptor) [%] | melting point [°C]
CC1(c2ccccc2F)COCCN1Cc1ccn2c(CC3CC3)nnc2c1C(F)(F)F (single isomer, unassigned) [Compound 4a, 3-(Cyclopropylmethyl)-7-{[(3*R)-3-(2-fluorophenyl)-3-methylmorpholin-4-yl]methyl}-8-(trifluoromethyl)[1,2,4]triazolo[4,3-a]pyridine] | 1.82e-07 | 108 | – | –
CC1(c2ccc(F)cc2F)COCCN1Cc1ccn2c(CC3CC3)nnc2c1C(F)(F)F (single isomer, unassigned) [Compound 5a, 3-(Cyclopropylmethyl)-7-{[(3*R)-3-(2,4-difluorophenyl)-3-methylmorpholin-4-yl]methyl}-8-(trifluoromethyl)[1,2,4]triazolo[4,3-a]pyridine] | 2e-07 | 101 | – | –
CC1(c2ccc(F)cc2F)COCCN1Cc1ccn2c(CC3CC3)nnc2c1C(F)(F)F (single isomer, unassigned) [Compound 5b, 3-(Cyclopropylmethyl)-7-{[(3*S)-3-(2,4-difluorophenyl)-3-methylmorpholin-4-yl]methyl}-8-(trifluoromethyl)[1,2,4]triazolo[4,3-a]pyridine] | 1.38e-07 | 126 | – | –
